The target in this test is T1, human HSD17β13 (stable HEK293T cell line overexpressing human HSD17β13) (Homo sapiens, UniProt Q7Z5P4).
T1 construct: expressed in transfected cells
T1 sequence (Q7Z5P4 20-300): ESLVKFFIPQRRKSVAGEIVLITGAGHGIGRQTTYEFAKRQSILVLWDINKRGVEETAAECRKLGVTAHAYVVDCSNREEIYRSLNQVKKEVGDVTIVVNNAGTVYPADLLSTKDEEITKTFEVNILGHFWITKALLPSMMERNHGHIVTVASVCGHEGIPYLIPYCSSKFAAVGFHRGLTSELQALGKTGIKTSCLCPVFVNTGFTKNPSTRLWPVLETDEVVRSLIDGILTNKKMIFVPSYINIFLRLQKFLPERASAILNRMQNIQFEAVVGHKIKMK
Put plainly: HSD17β13 inhibitor cell-based screening assay (conversion of estradiol-d2 to estrone-d2 by RF-MS). Particulars: conversion of estradiol-d2 to estrone-d2 after 24 hours. In short, it runs like this: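 Cellular IC50 is based on 24-h conversion of estradiol-d2 (5 μM final) to estrone-d2, measured by RF-MS in acetonitrile-precipitated supernatants. Assay uses human HSD17β13-overexpressing HEK293T cells (7.5E3/well, 1% charcoal/dextran FBS MEM), with compounds dosed as a 9-point 1:3 series to 10 μM final. ATPlite luminescence on overexpressing and parent lines measured viability.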

In turn, `COc1ccc(Cn2c(-c3cc(F)c(F)cc3C3CC3)nc3sc4c(O)c(Cl)ccc4c3c2=O)cn1` [Example 168] showed an IC50 below 100 nM.
As for `N#Cc1ccc(-c2nc3sc4c(O)c(Cl)ccc4c3c(=O)n2Cc2cccnc2)c(C2CC2)c1` [Example 170], the figure is below 100 nM; as for `N#Cc1ccc(Cn2c(-c3cc(F)c(F)cc3C3CC3)nc3sc4c(O)c(Cl)ccc4c3c2=O)cn1` [Example 172], below 100 nM; as for `O=c1c2c(nc(-c3cnc(C(F)(F)F)cc3C3CC3)n1Cc1cc(C(F)(F)F)no1)sc1c(O)c(Cl)ccc12` [Example 173], below 100 nM.
On to `O=c1c2c(nc(-c3ccc(C(F)F)cc3C3CC3)n1Cc1cnc(C(F)(F)F)nc1)sc1c(O)c(Cl)ccc12` [Example 177], for which the 50% inhibitory concentration (IC50) was below 100 nM.
Consider `O=c1c2c(nc(-c3cnc(C(F)(F)F)cc3C3CC3)n1Cc1cnc(C(F)(F)F)nc1)sc1c(O)c(Cl)ccc12` [Example 178], for which the IC50 was below 100 nM.
Compound `O=c1c2c(nc(-c3cnc(C(F)(F)F)cc3C3CC3)n1Cc1ccc(C(F)(F)F)nc1)sc1c(O)c(Cl)ccc12` [Example 179] yielded an IC50 below 100 nM.
Consider `O=c1c2c(nc(-c3ccc(C(F)F)cc3C3CC3)n1Cc1ccc(C(F)(F)F)nc1)sc1c(O)c(Cl)ccc12` [Example 180], for which the IC50 was below 100 nM.
Turning to `O=c1c2c(nc(-c3cc(F)c(C(F)F)cc3C3CC3)n1Cc1ccc(C(F)(F)F)nc1)sc1c(O)c(Cl)ccc12` [Example 181], the half-inhibitory concentration (IC50) is below 100 nM.
With `Cn1ncc2cc(-c3nc4sc5c(O)c(Cl)ccc5c4c(=O)n3Cc3cnc(C(F)(F)F)nc3)c(C3CC3)cc21` [Example 182], the half-maximal inhibitory concentration (IC50) is below 100 nM.
Compound `O=c1c2c(nc(-c3cc(F)c(F)cc3C3CC3)n1Cc1cnc(C(F)(F)F)nc1)sc1c(O)c(F)ccc12` [Example 183] came in with a 50% inhibitory concentration (IC50) below 100 nM.
As for `O=c1c2c(nc(-c3cc(F)c(F)cc3C3CC3)n1Cc1cnc(C(F)(F)F)nc1)sc1c(O)ccc(F)c12` [Example 184], the figure is below 100 nM.
Compound `CS(=O)(=O)Nc1ccc(-c2nc3sc4c(O)c(Cl)ccc4c3c(=O)n2Cc2cnc(C(F)(F)F)nc2)c(C2CC2)c1` [Example 185] yielded a 50% inhibitory concentration (IC50) below 100 nM.
Turning to `Cn1cc(Cn2c(-c3ccc(C(F)F)cc3C3CC3)nc3sc4c(O)c(Cl)ccc4c3c2=O)ccc1=O` [Example 186], the IC50 was below 100 nM.
As to `Cn1cc(Cn2c(-c3cc(F)c(C(F)F)cc3C3CC3)nc3sc4c(O)c(Cl)ccc4c3c2=O)ccc1=O` [Example 187], the IC50 was below 100 nM.
As for `COc1ccc(-c2nc3sc4c(O)c(Cl)ccc4c3c(=O)n2CCc2cnco2)c(C2CC2)c1` [Example 188, 7-chloro-2-(2-cyclopropyl-4-methoxyphenyl)-8-hydroxy-3-(2-(oxazol-5-yl)ethyl)benzo[4,5]thieno[2,3-d]pyrimidin-4(3H)-one], the figure is 100 to 500 nM; as for `COc1ccc(-c2nc3sc4c(O)c(Cl)ccc4c3c(=O)n2CCCc2cnco2)c(C2CC2)c1` [Example 189], below 100 nM; as for `COc1ccc(-c2nc3sc4c(O)c(Cl)ccc4c3c(=O)n2Cc2cnc(C)s2)c(C2CC2)c1` [Example 192], below 100 nM.
`COc1ccc(-c2nc3sc4c(O)c(Cl)ccc4c3c(=O)n2Cc2cncn2C)c(C2CC2)c1` [Example 193] came in with an IC50 below 100 nM.
For `Cn1ncc2cc(C3CC3)c(-c3nc4sc5c(O)c(Cl)ccc5c4c(=O)n3Cc3cnco3)cc21` [Example 194], the IC50 fell in the range of 500 to 1000 nM.
Take `Cn1cc2cc(C3CC3)c(-c3nc4sc5c(O)c(Cl)ccc5c4c(=O)n3Cc3cnco3)cc2n1` [Example 195]: the half-inhibitory concentration (IC50) was below 100 nM.
In the case of `COc1ccc(-c2nc3sc4c(O)c(Cl)ccc4c3c(=O)n2Cc2cnc(C(C)C)s2)c(C2CC2)c1` [Example 196], the 50% inhibitory concentration (IC50) is below 100 nM.
Turning to `COc1ccc(-c2nc3sc4c(O)c(Cl)ccc4c3c(=O)n2Cc2cnc(C(F)F)s2)c(C2CC2)c1` [Example 197], the IC50 is below 100 nM.
`COc1ccc(-c2nc3sc4c(O)c(Cl)ccc4c3c(=O)n2Cc2cnc(C(F)(F)F)s2)c(C2CC2)c1` [Example 198] displayed an IC50 below 100 nM.
In turn, `COc1ccc(-c2nc3sc4c(O)c(Cl)ccc4c3c(=O)n2Cc2cc(C(F)F)no2)c(C2CC2)c1` [Example 199] had an IC50 below 100 nM.
As for `COc1ccc(-c2nc3sc4c(O)c(Cl)ccc4c3c(=O)n2Cc2ncc(C)o2)c(C2CC2)c1` [Example 200, 7-chloro-2-(2-cyclopropyl-4-methoxyphenyl)-8-hydroxy-3-((5-methyloxazol-2-yl)methyl)benzo[4,5]thieno[2,3-d]pyrimidin-4(3H)-one], the figure is below 100 nM.
Regarding `COc1ccc(-c2nc3sc4c(O)c(Cl)ccc4c3c(=O)n2Cc2cnn(C(F)(F)F)c2)c(C2CC2)c1` [Example 201], the IC50 was below 100 nM.
Compound `COc1ccc(-c2nc3sc4c(O)c(Cl)ccc4c3c(=O)n2Cc2nncs2)c(C2CC2)c1` [Example 202] had a concentration for half-maximal inhibition (IC50) below 100 nM.
For `COc1cc(C2CC2)c(-c2nc3sc4c(O)c(Cl)ccc4c3c(=O)n2Cc2cnco2)cn1` [Example 203], the half-maximal inhibitory concentration (IC50) lay in the range of 100 to 500 nM.
Turning to `O=c1c2c(nc(-c3cnc(C(F)(F)F)cc3C3CC3)n1Cc1cnco1)sc1c(O)c(Cl)ccc12` [Example 204], the 50% inhibitory concentration (IC50) is below 100 nM.
As for `CCc1ncc(Cn2c(-c3cc(F)c(F)cc3C3CC3)nc3sc4c(O)c(Cl)ccc4c3c2=O)s1` [Example 205], the figure is below 100 nM.
`C/C=C/c1cc2cn[nH]c2cc1-c1nc2sc3c(O)c(Cl)ccc3c2c(=O)n1Cc1cnco1` [Example 206] returned an IC50 of 100 to 500 nM.
Regarding `O=c1c2c(nc(-c3cc(F)c(F)cc3C3CC3)n1Cc1cnccn1)sc1c(O)c(Cl)ccc12` [Example 207], the half-inhibitory concentration (IC50) was below 100 nM.
As for `COCc1cc(Cn2c(-c3cc(F)c(F)cc3C3CC3)nc3sc4c(O)c(Cl)ccc4c3c2=O)on1` [Example 208], the figure is below 100 nM; as for `O=c1c2c(nc(-c3cc(F)c(F)cc3C3CC3)n1Cc1nncs1)sc1c(O)c(Cl)ccc12` [Example 209], below 100 nM; as for `N#Cc1ncc(Cn2c(-c3cc(F)c(F)cc3C3CC3)nc3sc4c(O)c(Cl)ccc4c3c2=O)s1` [Example 210], below 100 nM.
`O=c1c2c(nc(-c3cc(F)c(F)cc3C3CC3)n1Cc1cnn(C(F)(F)F)c1)sc1c(O)c(Cl)ccc12` [Example 211] yielded a 50% inhibitory concentration (IC50) below 100 nM.
`O=c1c2c(nc(-c3cc(F)c(F)cc3C3CC3)n1Cc1ccns1)sc1c(O)c(Cl)ccc12` [Example 212]: the half-inhibitory concentration (IC50) was below 100 nM.
The compound `O=c1c2c(nc(-c3cc(F)c(F)cc3C3CC3)n1Cc1nn[nH]n1)sc1c(O)c(Cl)ccc12` [Example 213] yielded a 50% inhibitory concentration (IC50) of 1000 to 100000 nM.
In the case of `O=c1c2c(nc(-c3cc(F)c(F)cc3C3CC3)n1Cc1cn[nH]n1)sc1c(O)c(Cl)ccc12` [Example 214], the half-inhibitory concentration (IC50) is below 100 nM.
Regarding `O=c1c2c(nc(-c3cc(F)c(F)cc3C3CC3)n1Cc1cn[nH]c1)sc1c(O)c(Cl)ccc12` [Example 215], the IC50 is below 100 nM.
As for `Cn1cc(Cn2c(-c3cc(F)c(F)cc3C3CC3)nc3sc4c(O)c(Cl)ccc4c3c2=O)cn1` [Example 216], the figure is below 100 nM.
Take `O=c1c2c(nc(-c3cc(F)c(F)cc3C3CC3)n1Cc1nnc(C(F)(F)F)s1)sc1c(O)c(Cl)ccc12` [Example 217]: the IC50 was below 100 nM.

In general, IC50 refers to the concentration at which inhibition is half-maximal. Higher therefore signals lower potency.
